This is an account of results in US20150197802A1 (priority 2012, published 2015).

Like-named read-outs stand apart in the source and are kept apart here.

Data set [1] relates to HPTC. The format is cell-based, human.
For data set [2], the system named is renal proximal tubule. The settings on record: cited from earlier work; for classification of the test compound with regard to nephrotoxicity: group of the test compound; for nephrotoxic effects in humans: clinical, clinically relevant concentrations.
Data set [3] concerns human primary renal proximal tubular cells (HPTC). The data set can be described thus: IL-6 and IL-8 expression (qPCR) in renal proximal tubular cells after 16 h exposure. In general terms: Quantitative PCR measures a nucleic acid by following its amplification.

With `[Cl][Cd][Cl]` [CdCl2], in data set [1] (two batches of HPTC, high doses (2.5 mg/ml gentamicin, 10 mg/ml CdCl2), FIG. 1), the “IL-8 expression, up-regulation compared with the other marker genes tested” value is “highest levels of up-regulation”.

Consider `[Cl][Cu][Cl]` [CuCl2], for which, in data set [2], the “classification of the test compound with regard to nephrotoxicity” value (“classification of the test compound” for short) is listed as “PT-specific nephrotoxin”.

With `N.N.[Cl][Pt][Cl]` [cisplatin], the cell death entry in data set [3] (HPTC 1, highest concentration tested, dose-response FIG. 2) is given as “massive cell death”.

`C[C@@H]1C[C@H]2[C@@H]3CCC4=CC(=O)C=C[C@]4(C)[C@@]3(F)[C@@H](O)C[C@]2(C)[C@@]1(O)C(=O)CO` [dexamethasone]: in data set [2], the “classification of the test compound” value was “not nephrotoxic”.

For `OCCO` [ethylene glycol], the “classification of the test compound” value in data set [2] is reported as “non-PT-specific nephrotoxin”.

In the case of `C[C@H](Cn1cnc2c(N)ncnc21)OCP(=O)(O)O` [tenofovir], the “nephrotoxic effects in humans” value in data set [2] is recorded as “injures the renal proximal tubules”.

For `CN(C)[C@@H]1C(O)=C(C(N)=O)C(=O)[C@@]2(O)C(O)=C3C(=O)c4c(O)cccc4[C@@](C)(O)[C@H]3C[C@@H]12` [tetracycline], the “nephrotoxic effects in humans” value in data set [2] is “usually no obvious nephrotoxic effects, but can induce AKI and ESRD in patients with pre-existing kidney disease”. The “test result in the IL-6/IL-8 expression method (positive = predicted PT-specific nephrotoxin)” value in data set [3] (1 μg/ml to 1000 μg/ml, 16 h) was “positive”.

Consider gentamicin, for which the “IL-8 expression, up-regulation compared with the other marker genes tested” value in data set [1] was “highest levels of up-regulation”.
